Laboratory results from paper PMC9697446 (International Journal of Molecular Sciences, 2022).

How the values were obtained:
[1] = system: rat cerebellar granule cells (CGC) and brain cortical neurons (BCN); test: Viability of CGC and BCN with the compound alone, MTT assay; type: cell-based; settings: various concentrations
Procedure: (§1) This neurotoxicity model reflects the calcium stress involved with several types of insults, such as amyloid toxicity, excitotoxicity, and ischemic damage. The viability of the primary culture of rat cerebellar granule cells (CGC) and brain cortical neurons (BCN) was assessed by the MTT assay in the presence of various concentrations of compound 4i.
Cerebellar granule cells (CGC) and brain cortical neurons (BCN) were isolated from P-7 or P0-2 rat’s pups, respectively, using a previously described protocol. Once removed, cerebella or brain cortex were digested for 15 min in 0.025% type II trypsin (w/v) at 37 °C. Ice-cold DMEM containing 5% (w/v) fetal bovine serum was added to inactivate the trypsin. […] After 8-10 day in culture the cells were incubated with a test compound or an equal volume of the DMSO (<1% (v/v) of the whole volume of the medium under the layer of cells and 3 µM ionomycin for 24 h. The cell viability was then evaluated as the dehydrogenase activity with the 3-(4,5-dimethylthiazol-2-yl)-2,5-diphenyltetrazolium bromide (MTT) assay. The absorbance was measured at 570 nm using a Victor microplate reader (Perkin Elmer), and data were normalized with intact control assumed 100%.

[2] = system: rat brain cortical neurons (BCN); test: Ionomycin-induced toxicity in brain cortical neurons, MTT assay; type: cell-based; settings: ionomycin 1 µM
Procedure: as §1
Cerebellar granule cells (CGC) and brain cortical neurons (BCN) were isolated from P-7 or P0-2 rat’s pups, respectively, using a previously described protocol. Once removed, cerebella or brain cortex were digested for 15 min in 0.025% type II trypsin (w/v) at 37 °C. Ice-cold DMEM containing 5% (w/v) fetal bovine serum was added to inactivate the trypsin. The crude cell suspension was centrifuged, and the cell pellet was resuspended in Neurobasal with 2% (v/v) B27 supplemented with 15% (v/v) fetal bovine serum (FBS), 100 U/mL penicillin, and […] streptomycin. The cells were cultured in a humidified, 5% (v/v) CO2-controlled environment at 37 °C. […] The cell viability was then evaluated as the dehydrogenase activity with the 3-(4,5-dimethylthiazol-2-yl)-2,5-diphenyltetrazolium bromide (MTT) assay. The absorbance was measured at 570 nm using a Victor microplate reader (Perkin Elmer), and data were normalized with intact control assumed 100%.

[3] = system: isolated rat liver mitochondria; test: Oxygen consumption rate of mitochondria (Seahorse flux analyzer); type: biochemical; settings: nanomolar concentrations; complex I substrates (glutamate and malate) and in the presence of rotenone
Procedure: Meanwhile, compound 4i can stimulate respiration of isolated rat liver mitochondria, which was estimated using an XFe96 Seahorse extracellular flux analyzer (Figure 5).
Analysis was based on the fluorometric determination of O2 and H^+ levels with solid-state probes on a sensor cartridge. The oxygen consumption rate (OCR) was measured successively in the presence of RC substrates and then after the addition of ADP (phosphorylating respiration), ATP synthase F^o-subunit inhibitor oligomycin (proton leak), oxidative phosphorylation uncoupler FCCP (maximal respiration), and the corresponding inhibitors of respiration chain complexes (non-mitochondrial respiration) (Figure 5a).
The oxygen consumption was measured using a Seahorse XF96 flux analyzer on mitochondria respiring on glutamate (5 mM) and malate (5 mM), according the same protocol as with a correction to a 96-well instead of a 24-well plate. Respiration by rat liver mitochondria (5 µg/well) was sequentially measured in a coupled state with substrates of complex I (basal respiration); followed by phosphorylating respiration after the addition of ADP; non-phosphorylating or resting respiration induced with the addition of oligomycin; uncoupled respiration stimulated by the addition of FCCP; and finally, non-mitochondrial respiration after the addition of the inhibitor of complex I rotenone.

[4] = cited from earlier work

| SMILES | Effect on formazan formation in the MTT assay (toxicity to cells) [1] | Protection from ionomycin-induced toxicity, BCN [2] | Phosphorylating respiration and maximal respiration (OCR) [3] | Redox potential [4] [mV] |
| --- | --- | --- | --- | --- |
| CC1CCc2c(c3cc(OC(F)(F)F)ccc3n2CCC(=O)N2c3ccc(N(C)C)cc3Sc3cc(N(C)C)ccc32)C1 (stereo not shown) [Compound 4i] | did not affect formazan formation | statistically significant protection | statistically significant increase |  |
| CN(C)c1ccc2nc3ccc(=[N+](C)C)cc-3sc2c1 [MB, Methylene blue, reference compound] |  |  |  | 11 |
